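Growth conditions: 96-well plates. Treatment: test compound, 48 hours, 5 concentrations. Analysis: linear interpolation between bracketing concentrations; unreached endpoints set to highest concentration. At the TGI there is no net growth.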
Key:
Assay in all cases: NCI anticancer screen, dose series, 48 h
[1] = system: A498 renal
[2] = system: DU-145 prostate
[3] = system: OVCAR-4 ovarian
[4] = system: SNB-75 CNS
[5] = system: K-562 leukemia
[6] = system: SK-MEL-28 melanoma
[7] = system: MOLT-4 leukemia
[8] = system: ACHN renal
[9] = system: TK-10 renal
[10] = system: HCT-116 colon
[11] = system: LOX IMVI melanoma
[12] = system: M14 melanoma
[13] = system: HCT-15 colon
[14] = system: SNB-19 CNS
[15] = system: OVCAR-8 ovarian
[16] = system: SF-539 CNS
[17] = system: UACC-62 melanoma
[18] = system: MCF7 breast
[19] = system: OVCAR-3 ovarian
[20] = system: KM12 colon
[21] = system: RPMI-8226 leukemia
[22] = system: NCI-H23 lung
[23] = system: A549 NSCLC
[24] = system: HT29 colon
[25] = system: OVCAR-5 ovarian
[26] = system: RXF 393 renal
[27] = system: SF-268 CNS
[28] = system: PC-3 prostate
[29] = system: MALME-3M melanoma
[30] = system: SK-MEL-2 melanoma
[31] = system: MDA-MB-231 breast
[32] = system: SF-295 CNS
[33] = system: HCC-2998 colon
[34] = system: CAKI-1 renal
[35] = system: MDA-MB-435
[36] = system: EKVX NSCLC
[37] = system: HS 578T breast
[38] = system: SN12C renal
[39] = system: CCRF-CEM leukemia
[40] = system: T-47D breast
[41] = system: UACC-257 melanoma
[42] = system: SK-OV-3 ovarian
[43] = system: SW-620 colon
[44] = system: BT-549 breast
[45] = system: NCI-H460 lung
[46] = system: U251 CNS
[47] = system: IGROV1 ovarian
[48] = system: HOP-92 NSCLC
[49] = system: COLO 205 colon
[50] = system: NCI-H522 lung
[51] = system: MDA-N
[52] = system: SK-MEL-5 melanoma
[53] = system: HOP-62 NSCLC
[54] = system: NCI/ADR-RES ovarian
[55] = system: UO-31 renal
[56] = system: 786-0 renal
[57] = system: SR leukemia
[58] = system: NCI-H226 lung
[59] = system: HL-60(TB) leukemia

Measured: TGI

COC(=O)C(CNC(=O)/C=C/c1ccc(OC)c(OC)c1)NC(=O)/C=C/c1ccc(OC)c(OC)c1 (centres undefined)
> 100 µM: [1] | [2] | [3] | [4] | [5] | [6] | [7] | [8] | [9] | [10] | [11] | [12] | [13] | [14] | [15] | [16] | [17] | [18] | [19] | [20] | [21] | [22] | [23] | [24] | [25] | [26] | [27] | [28] | [29] | [30] | [31] | [32] | [33] | [34] | [35] | [36] | [37] | [38] | [39] | [40] | [41] | [42] | [43] | [44] | [45] | [46] | [47] | [48] | [49] | [50] | [51] | [52] | [53] | [54] | [55] | [56] | [57] | [58]

CCOP(=O)(CC(=O)C1CC1)OCC
> 100 µM: [2] | [3] | [4] | [5] | [6] | [7] | [8] | [9] | [10] | [11] | [12] | [13] | [14] | [15] | [16] | [17] | [18] | [20] | [22] | [23] | [24] | [25] | [27] | [28] | [29] | [30] | [31] | [32] | [33] | [34] | [36] | [37] | [38] | [39] | [40] | [41] | [42] | [43] | [44] | [45] | [46] | [47] | [59] | [49] | [50] | [51] | [52] | [53] | [54] | [55] | [56] | [57] | [58]

CC(C)C1CSC2N1C(=O)C2(OCc1ccccc1)C1CC1 (centres undefined)
> 100 µM: [1] | [2] | [3] | [4] | [5] | [6] | [7] | [8] | [9] | [10] | [11] | [12] | [13] | [14] | [15] | [16] | [17] | [18] | [19] | [20] | [21] | [22] | [23] | [24] | [25] | [26] | [27] | [28] | [29] | [31] | [32] | [33] | [34] | [35] | [36] | [37] | [38] | [39] | [40] | [41] | [42] | [43] | [44] | [45] | [46] | [47] | [59] | [48] | [49] | [50] | [51] | [52] | [53] | [54] | [55] | [56] | [57] | [58]
